Test system: 4T-1 cells of mammary cancer
Experiment: Orthotopic 4T1 breast cancer model, lung metastases
Format: in vivo, BALB/c mice
Settings: after 3 weeks
From the text: The objective of this study was to evaluate the capacity of a suspension of liposomal MTP-PE, prepared according to the invention and administered orally, to inhibit the development of pulmonary metastases from cancer of the mammary gland.
The experimental model consisted of using immunocompetent mice of the BALB/c strain and performing an orthotopic transplant of 4T-1 cells of mammary cancer of murine origin.
This orthotopic graft forms a tumor reproducing human breast cancer which disseminates and forms metastases in the lungs after 3 weeks.
Suspensions of liposomes were prepared according to the method indicated in example 1.
4T1 tumors were induced on day zero (DO) orthotopically in 60 BALB/c female mice under anesthesia.
A total of 300,000 4T1 tumor cells were slowly injected into the right thoracic breast tissue.
Animals were randomized by tumor size on Day 9 into six groups of ten animals each […]. Homogeneity of tumor sizes between groups was tested by analysis of variance (ANOVA).
The animals of Groups 1, 2 and 3 were treated respectively with Batch H3 (control), Batch G3 and Batch G3 twice a week orally.
Additionally, animals in Groups 2 and 4 were treated with intravenous injections of doxorubicin at 8 mg/kg once weekly for 3 weeks. […] The number of lung metastases was counted using a binocular loupe.

COc1cccc2c1C(=O)c1c(O)c3c(c(O)c1C2=O)C[C@@](O)(C(=O)CO)C[C@@H]3O[C@H]1C[C@H](N)[C@H](O)[C@H](C)O1 [doxorubicin]
Effect on lung metastases (in words): did not show significant efficacy
